Our source for the IC50 values is patent US10112929B2, “Lactams as inhibitors of rock” (BRISTOL-MYERS SQUIBB COMPANY, priority 2015, dated 2018).

Usually IC50 stands for the point on the concentration scale where inhibition reaches its midpoint.
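Note: rho kinase enzyme reaction halted with EDTA, phospho- and non-phospho peptide separated for read-out, kinase activity inhibition derived across a dose-response series, DMSO under 2%.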

The assay deals with ROCK2 (Homo sapiens (Human), UniProt O75116). Briefly: biochemical.
ROCK2, sequence (O75116 whole entry, species assumed): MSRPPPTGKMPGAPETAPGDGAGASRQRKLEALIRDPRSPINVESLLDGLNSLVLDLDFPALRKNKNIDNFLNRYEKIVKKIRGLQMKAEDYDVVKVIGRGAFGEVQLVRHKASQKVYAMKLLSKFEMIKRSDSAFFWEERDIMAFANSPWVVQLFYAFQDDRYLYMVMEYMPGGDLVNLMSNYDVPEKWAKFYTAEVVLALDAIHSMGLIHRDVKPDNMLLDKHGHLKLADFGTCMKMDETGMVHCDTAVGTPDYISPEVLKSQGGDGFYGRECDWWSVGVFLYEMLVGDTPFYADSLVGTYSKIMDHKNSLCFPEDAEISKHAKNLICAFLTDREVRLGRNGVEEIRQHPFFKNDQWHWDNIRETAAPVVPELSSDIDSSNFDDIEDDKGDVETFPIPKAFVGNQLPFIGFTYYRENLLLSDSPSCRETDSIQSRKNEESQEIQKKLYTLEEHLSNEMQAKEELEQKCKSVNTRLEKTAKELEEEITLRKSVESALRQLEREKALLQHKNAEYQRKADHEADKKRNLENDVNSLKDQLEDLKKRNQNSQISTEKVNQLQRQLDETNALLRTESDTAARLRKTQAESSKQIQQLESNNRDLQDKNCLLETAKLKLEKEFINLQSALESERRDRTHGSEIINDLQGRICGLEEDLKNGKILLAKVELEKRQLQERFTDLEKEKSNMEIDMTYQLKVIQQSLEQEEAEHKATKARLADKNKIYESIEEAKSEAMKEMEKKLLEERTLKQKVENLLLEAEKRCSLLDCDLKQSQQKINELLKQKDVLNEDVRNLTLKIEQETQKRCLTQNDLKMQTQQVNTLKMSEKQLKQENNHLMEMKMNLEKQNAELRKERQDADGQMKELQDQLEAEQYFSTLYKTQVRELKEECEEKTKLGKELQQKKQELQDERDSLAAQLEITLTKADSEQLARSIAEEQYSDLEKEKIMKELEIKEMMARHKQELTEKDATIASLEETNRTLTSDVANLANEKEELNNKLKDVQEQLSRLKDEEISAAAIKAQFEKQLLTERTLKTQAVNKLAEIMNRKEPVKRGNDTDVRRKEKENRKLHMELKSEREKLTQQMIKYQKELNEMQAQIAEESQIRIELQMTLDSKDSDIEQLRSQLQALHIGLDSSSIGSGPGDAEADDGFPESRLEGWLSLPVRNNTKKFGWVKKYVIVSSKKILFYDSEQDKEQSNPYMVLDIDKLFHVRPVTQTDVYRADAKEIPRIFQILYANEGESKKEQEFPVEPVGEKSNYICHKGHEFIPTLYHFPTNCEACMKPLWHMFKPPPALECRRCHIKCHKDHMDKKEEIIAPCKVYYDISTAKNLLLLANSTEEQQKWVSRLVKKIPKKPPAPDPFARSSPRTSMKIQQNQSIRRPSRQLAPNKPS
`COc1cccc(NC2CCN(c3ccc(-c4ccnc5[nH]ccc45)cc3)C2=O)c1` (single isomer, unassigned) [Example 80, 1-(4-(1H-pyrrolo[2,3-b]pyridin-4-yl)phenyl)-3-((3-methoxyphenyl)amino) pyrrolidin-2-one] came in with a 50% inhibitory concentration (IC50) of 100 to 2200 nM. `COc1cccc(NC2CCN(c3ccc(-c4ccnc5[nH]ccc45)cc3)C2=O)c1` (single isomer, unassigned) [Example 81, 1-(4-(1H-pyrrolo[2,3-b]pyridin-4-yl)phenyl)-3-((3-methoxyphenyl)amino)pyrrolidin-2-one] had a half-inhibitory concentration (IC50) of 10 to 100 nM.

Take `COc1cc(NC2CCN(c3ccc(-c4cn[nH]c4)cn3)C2=O)ccc1F` (single isomer, unassigned) [Example 83, 1-(5-(1H-pyrazol-4-yl)pyridin-2-yl)-3-((4-fluoro-3-methoxyphenyl)amino)pyrrolidin-2-one]: the half-maximal inhibitory concentration (IC50) was 10 to 100 nM. To `COc1cccc(NC2CCN(c3ccc(-c4cn[nH]c4)cn3)C2=O)c1` (single isomer, unassigned) [Example 85, 1-(5-(1H-pyrazol-4-yl)pyridin-2-yl)-3-((3-methoxyphenyl)amino)pyrrolidin-2-one] belongs < 10 nM; to `COc1cc(F)cc(NC2CCN(c3ccc(-c4cn[nH]c4)cn3)C2=O)c1` (single isomer, unassigned) [Example 88, 1-(5-(1H-pyrazol-4-yl)pyridin-2-yl)-3-((3-fluoro-5-methoxyphenyl)amino)pyrrolidin-2-one], < 10 nM. For the compound `COc1c(F)cccc1NC1CCN(c2ccc(-c3cn[nH]c3)cn2)C1=O` (single isomer, unassigned) [Example 89, 1-(5-(1H-pyrazol-4-yl)pyridin-2-yl)-3-((3-fluoro-2-methoxyphenyl)amino) pyrrolidin-2-one], the IC50 was < 10 nM.

Take `COc1c(F)cccc1NC1CCN(c2ccc(-c3cn[nH]c3)cn2)C1=O` (single isomer, unassigned) [Example 90, 1-(5-(1H-pyrazol-4-yl)pyridin-2-yl)-3-((3-fluoro-2-methoxyphenyl)amino)pyrrolidin-2-one]: the half-maximal inhibitory concentration (IC50) fell in the range of 100 to 2200 nM. To `COc1cc(NC2CCN(c3ccc(-c4cn[nH]c4)c(OC(F)F)c3)C2=O)ccc1F` (single isomer, unassigned) [Example 106, 1-[3-(difluoromethoxy)-4-(1H-pyrazol-4-yl)phenyl]-3-[(4-fluoro-3-methoxyphenyl)amino]pyrrolidin-2-one] belongs 10 to 100 nM; to `COc1cccc(NC2CCN(c3ccc(-c4cn[nH]c4)c(OC(F)F)c3)C2=O)c1` (single isomer, unassigned) [Example 114, 1-(3-(difluoromethoxy)-4-(1H-pyrazol-4-yl)phenyl)-3-((3-methoxyphenyl)amino)pyrrolidin-2-one], 10 to 100 nM; to `COc1cccc(NC2CCN(c3ccc(-c4ccnc5[nH]ccc45)c(C)n3)C2=O)c1` (single isomer, unassigned) [Example 119, 3-((3-methoxyphenyl)amino)-1-(6-methyl-5-(1H-pyrrolo[2,3-b]pyridin-4-yl)pyridin-2-yl)pyrrolidin-2-one], 100 to 2200 nM. Under `COc1cccc(NC2CCN(c3ccc(-c4ccnc5[nH]ccc45)c(C)n3)C2=O)c1` (single isomer, unassigned) [Example 120, 3-((3-methoxyphenyl)amino)-1-(6-methyl-5-(1H-pyrrolo[2,3-b]pyridin-4-yl)pyridin-2-yl)pyrrolidin-2-one] stands 10 to 100 nM; under `COc1cccc(NC2CCN(c3ccc(-c4ccncc4F)c(C)n3)C2=O)c1` (single isomer, unassigned) [Example 121, 1-(3′-fluoro-2-methyl-[3,4′-bipyridin]-6-yl)-3-((3-methoxyphenyl)amino)pyrrolidin-2-one], 100 to 2200 nM. Turning to `COc1cccc(NC2CCN(c3ccc(-c4ccnc(N)n4)c(C)n3)C2=O)c1` (single isomer, unassigned) [Example 122, 1-(5-(2-aminopyrimidin-4-yl)-6-methylpyridin-2-yl)-3-((3-methoxyphenyl)amino) pyrrolidin-2-one], the IC50 is 10 to 100 nM. The compound `COc1cccc(OC2CCN(c3ccc(-c4ccc5[nH]ncc5c4)c(OC)n3)C2=O)c1` (single isomer, unassigned) [Example 123, 1-(5-(1H-indazol-5-yl)-6-methoxypyridin-2-yl)-3-(3-methoxyphenoxy)pyrrolidin-2-one] had an IC50 of 100 to 2200 nM. Under `COc1cccc(OC2CCN(c3ccc(-c4ccc5cn[nH]c5c4)c(OC)n3)C2=O)c1` (single isomer, unassigned) [Example 124, 1-(5-(1H-indazol-6-yl)-6-methoxypyridin-2-yl)-3-(3-methoxyphenoxy)pyrrolidin-2-one] stands 100 to 2200 nM. In turn, `COc1cccc(NC2CCN(c3ccc(-c4cn[nH]c4)c(C(N)=O)c3)C2=O)c1` (single isomer, unassigned) [Example 130, 5-(3-((3-Methoxyphenyl)amino)-2-oxopyrrolidin-1-yl)-2-(1H-pyrazol-4-yl)benzamide] came in with an IC50 of 100 to 2200 nM. As to `COc1cc(N2CCC(Nc3c(F)cccc3OC)C2=O)ccc1-c1cn[nH]c1` (single isomer, unassigned) [Example 135, 3-((2-fluoro-6-methoxyphenyl)amino)-1-(3-methoxy-4-(1H-pyrazol-4-yl)phenyl) pyrrolidin-2-one], the IC50 is 10 to 100 nM.

As to `COc1cc(F)cc(NC2CCN(c3ccc(-c4cn[nH]c4)c(OC)c3)C2=O)c1` (single isomer, unassigned) [Example 137, 3-((3-fluoro-5-methoxyphenyl)amino)-1-(3-methoxy-4-(1H-pyrazol-4-yl)phenyl) pyrrolidin-2-one], the half-maximal inhibitory concentration (IC50) is < 10 nM. With `COc1cc(NC2CCN(c3ccc(-c4cn[nH]c4)c(OC)c3)C2=O)cc(OC)c1` (single isomer, unassigned) [Example 139, 3-((3,5-dimethoxyphenyl)amino)-1-(3-methoxy-4-(1H-pyrazol-4-yl)phenyl) pyrrolidin-2-one], the half-maximal inhibitory concentration (IC50) lay in the range of 100 to 2200 nM. `COc1ccc(NC2CCN(c3ccc(-c4cn[nH]c4)c(OC)c3)C2=O)cc1F` (single isomer, unassigned) [Example 141, 3-((3-fluoro-4-methoxyphenyl)amino)-1-(3-methoxy-4-(1H-pyrazol-4-yl)phenyl) pyrrolidin-2-one] registered a half-inhibitory concentration (IC50) of 100 to 2200 nM. `COc1cc(F)ccc1NC1CCN(c2ccc(-c3cn[nH]c3)c(OC)c2)C1=O` (single isomer, unassigned) [Example 143, 3-((4-fluoro-2-methoxyphenyl)amino)-1-(3-methoxy-4-(1H-pyrazol-4-yl)phenyl) pyrrolidin-2-one] showed an IC50 of 100 to 2200 nM. On to `COc1cc(N2CCC(Nc3cc(F)cc(F)c3)C2=O)ccc1-c1cn[nH]c1` (single isomer, unassigned) [Example 145, 3-((3,5-difluorophenyl)amino)-1-(3-methoxy-4-(1H-pyrazol-4-yl)phenyl) pyrrolidin-2-one], for which the half-maximal inhibitory concentration (IC50) was in the range of 10 to 100 nM. As for `COc1cc(N2CCC(Nc3cc(F)cc(F)c3)C2=O)ccc1-c1cn[nH]c1` (single isomer, unassigned) [Example 146, 3-((3,5-difluorophenyl)amino)-1-(3-methoxy-4-(1H-pyrazol-4-yl)phenyl) pyrrolidin-2-one], the half-maximal inhibitory concentration (IC50) is < 10 nM. On to `COc1ccc(F)c(NC2CCN(c3ccc(-c4cn[nH]c4)c(OC)c3)C2=O)c1` (single isomer, unassigned) [Example 147, 3-((2-fluoro-5-methoxyphenyl)amino)-1-(3-methoxy-4-(1H-pyrazol-4-yl)phenyl) pyrrolidin-2-one], for which the concentration for half-maximal inhibition (IC50) fell in the range of 10 to 100 nM. Under `COc1cc(N2CCC(Nc3cccc(F)c3OC)C2=O)ccc1-c1cn[nH]c1` (single isomer, unassigned) [Example 150, 3-((3-fluoro-2-methoxyphenyl)amino)-1-(3-methoxy-4-(1H-pyrazol-4-yl)phenyl) pyrrolidin-2-one] stands 100 to 2200 nM; under `COc1cc(N2CCC(Nc3cccc(F)c3OC)C2=O)ccc1-c1cn[nH]c1` (single isomer, unassigned) [Example 151, 3-((3-fluoro-2-methoxyphenyl)amino)-1-(3-methoxy-4-(1H-pyrazol-4-yl)phenyl) pyrrolidin-2-one], < 10 nM; under `COc1ccc(NC2CCN(c3ccc(-c4cn[nH]c4)c(OC)c3)C2=O)c(F)c1` (single isomer, unassigned) [Example 152, 3-((2-fluoro-4-methoxyphenyl)amino)-1-(3-methoxy-4-(1H-pyrazol-4-yl)phenyl) pyrrolidin-2-one], 100 to 2200 nM. For the compound `COc1cc(NC2CCN(c3ccc(-c4cn[nH]c4)c(OC)c3)C2=O)ccc1F` (single isomer, unassigned) [Example 154, 3-((4-fluoro-3-methoxyphenyl)amino)-1-(3-methoxy-4-(1H-pyrazol-4-yl)phenyl) pyrrolidin-2-one], the concentration for half-maximal inhibition (IC50) fell in the range of 100 to 2200 nM. As to `COc1cc(NC2CCN(c3ccc(-c4cn[nH]c4)c(OC)c3)C2=O)ccc1F` (single isomer, unassigned) [Example 155, 3-((4-fluoro-3-methoxyphenyl)amino)-1-(3-methoxy-4-(1H-pyrazol-4-yl)phenyl) pyrrolidin-2-one], the IC50 was < 10 nM.

For `COc1ccc(NC2CCN(c3ccc(-c4cn[nH]c4)c(Cl)c3)C2=O)cc1F` (single isomer, unassigned) [Example 156, 1-(3-chloro-4-(1H-pyrazol-4-yl)phenyl)-3 ((3-fluoro-4-methoxyphenyl)amino) pyrrolidin-2-one], the IC50 was 100 to 2200 nM. In turn, `COc1cc(F)cc(NC2CCN(c3ccc(-c4cn[nH]c4)c(Cl)c3)C2=O)c1` (single isomer, unassigned) [Example 158, 1-(3-chloro-4-(1H-pyrazol-4-yl)phenyl)-3 ((3-fluoro-5-methoxyphenyl)amino) pyrrolidin-2-one] gave an IC50 of 100 to 2200 nM. With `COc1cc(NC2CCN(c3ccc(-c4cn[nH]c4)c(Cl)c3)C2=O)ccc1F` (single isomer, unassigned) [Example 160, 1-(3-chloro-4-(1H-pyrazol-4-yl)phenyl)-3-((4-fluoro-3-methoxyphenyl)amino) pyrrolidin-2-one], the concentration for half-maximal inhibition (IC50) lay within 10 to 100 nM.
